Tests used:
[1] = system: MMH/GH5 cells; experiment: cellular survival of MMH/GH5, Trypan Blue exclusion; assay type: cell-based, mice; parameters: % cellular survival, MMHGH/5 1 + 24 h / % cellular survival, MMHGH/5 5 + 24 / % vitality of the cells, MMH/GH 1 + 24 h / % vitality of the cells, MMH/GH 5 + 24 h: unit of the concentration uncertain; conditions: for % cellular survival, MMHGH/5 1 + 24 h / % vitality of the cells, MMH/GH 1 + 24 h: 1 h treatment + 24 h normal medium; for % cellular survival, MMHGH/5 5 + 24 / % vitality of the cells, MMH/GH 5 + 24 h: 5 h treatment + 24 h normal medium
Source text: (§1) This different behaviour is explained by the greater sensitivity to the toxicant of the PHGH with respect to the MMH/GH5 as shown by analysis of the cellular vitality performed with the Trypan Blue method (FIG. 1, graph B). […] Therefore the greater resistance of the cells MMH/GH/5 to the toxicants constitutes another evident advantage as it permits the exclusion of false negatives in which the non-release of hGH, due to cellular death, is interpreted as non-toxicity of the compound. When the supernatant is collected after 5 hours of treatment followed by 24 hours of culture with normal medium (FIG. 1 graph C) the PHGHs respond, at the lowest concentrations of the two toxicants, with high levels of secretion of hGH and, at the highest concentrations, with low levels of secretion of hGH (lower cellular survival, graph D).
(§2) In table 3 the cellular survival percentage was determined with the Trypan Blue exclusion method. […]
(§3) For treatment, the two types of cells were treated with different concentrations of the compounds for 1 or 5 hours and then with normal medium for a further 24 hours. The effects of the treatment were assessed as described previously for the inorganic toxicants.

[2] = system: primary hepatocytes (PHGH); experiment: cellular survival of PHGH, Trypan Blue exclusion; assay type: cell-based, mice; parameters: % cellular survival, PHGH 1 + 24 h / % cellular survival, PHGH 5 + 24 / % vitality of the cells, PHGH 1 + 24 h / % vitality of the cells, PHGH 5 + 24 h: unit of the concentration uncertain; conditions: for % cellular survival, PHGH 1 + 24 h / % vitality of the cells, PHGH 1 + 24 h: 1 h treatment + 24 h normal medium; for % cellular survival, PHGH 5 + 24 / % vitality of the cells, PHGH 5 + 24 h: 5 h treatment + 24 h normal medium
Source text: as §1, §2, §3

[3] = system: single transgenic HPS70/hGH primary hepatocytes (PHGH); experiment: toxicity test, hGH secretion by primary transgenic hepatocytes (PHGH); assay type: cell-based, mice
Source text: On the basis of the results illustrated, for the further analyses, clone no. […] The response to the toxic stress of the clone MMH/GH5 was then compared with the one obtained in single transgenic HPS70/hGH primary hepatocytes (PHGH). A representative sample of the cell line derived from said clone MMH/GH5 was deposited in accordance with and for the purposes of the Treaty of Budapest on the international recognition of deposit of micro-organisms for the purposes of the patents procedure with the AID “Centro di Biotecnologie Avanzate (CBA), Interlab Cell Line Collection (ICLC)” Servizio Biotecnologie, Largo R. Benzi, 10, 16132 Genova, Italy, on Jul. 30, 2002, where it was given identification number PD 02007.
as §2, §3

[4] = system: MMH/GH5 cells (Clone 5); conditions: words, Table 3
[5] = 0.5 (unit uncertain), Trypan Blue
[6] = 1 (unit uncertain), Trypan Blue
[7] = 10 (unit uncertain), Trypan Blue
[8] = 50 (unit uncertain), Trypan Blue (Table 4)

## C=CC(O)CCCCC (stereo not shown) [1-Oct, 1-octene-3-ol]
[1]; [5]
  % cellular survival, MMHGH/5 1 + 24 h: 90%
  % cellular survival, MMHGH/5 5 + 24: 50%
[1]; [6]
  % cellular survival, MMHGH/5 1 + 24 h: 70%
  % cellular survival, MMHGH/5 5 + 24: 20%
[2]; [5]
  % cellular survival, PHGH 1 + 24 h: 90%
  % cellular survival, PHGH 5 + 24: 60%
[2]; [6]
  % cellular survival, PHGH 1 + 24 h: 50%
  % cellular survival, PHGH 5 + 24: 20%
[2]; PHGH, words, Table 3
  cellular survival: reduced cellular survival
[3]; PHGH versus MMH/GH, at the end of the treatment
  effect of the treatment (hGH secretion): can be measured only in PHGH

## O=C1C=CCC1 [2-Cycl, 2-cyclopentene-1-one]
[1]; [5]
  % cellular survival, MMHGH/5 1 + 24 h: 90%
  % cellular survival, MMHGH/5 5 + 24: 90%
[1]; [6]
  % cellular survival, MMHGH/5 1 + 24 h: 90%
  % cellular survival, MMHGH/5 5 + 24: 90%
[4]
  response (hGH secretion) in MMH/GH5: rapid response
[2]; [5]
  % cellular survival, PHGH 1 + 24 h: 90%
  % cellular survival, PHGH 5 + 24: 90%
[2]; [6]
  % cellular survival, PHGH 1 + 24 h: 80%
  % cellular survival, PHGH 5 + 24: 60%

## c1ccc2c(c1)cc1ccc3cccc4ccc2c1c34 [BaP, Benzo(a)Pyrene]
[1]; [7]
  % vitality of the cells, MMH/GH 1 + 24 h: 90%
  % vitality of the cells, MMH/GH 5 + 24 h: 90%
[1]; [8]
  % vitality of the cells, MMH/GH 1 + 24 h: 90%
  % vitality of the cells, MMH/GH 5 + 24 h: 90%
[2]; [7]
  % vitality of the cells, PHGH 1 + 24 h: 50%
  % vitality of the cells, PHGH 5 + 24 h: 50%
[2]; [8]
  % vitality of the cells, PHGH 1 + 24 h: 50%
  % vitality of the cells, PHGH 5 + 24 h: 30%
[3]; words, Table 4
  stimulation of the promoter HSP70 in the PHGHs: does not stimulate
